Results taken from patent publication US8895504B2, “Amylin derivatives” (priority 2008, dated 2014).
*1 amine or outer side, *2 acyl side, *3 side chain or, on linkers, in order; H or OH if unused. Where a SMILES comes first, the peptide text is derived from it. Bridges are numbered along the chain shown (N, C = ends). The star is where a group is joined. C20 diacid = O=C(O)CCCCCCCCCCCCCCCCCCC(=O)*; C18 diacid = O=C(O)CCCCCCCCCCCCCCCCC(=O)*; γGlu = O=C(O)[C@H](CCC(=O)[*:2])N[*:1]

Target: T1, Amylin 3(a) receptor (human calcitonin receptor (CTa) and RAMP-3) (Homo sapiens, UniProt O60896+P30988)
T1 construct: expressed in transfected cells; host or cells: BHK570 cells, stably transfected with a CRE-luciferase reporter
Test: Luciferase assay (III), BHK Amylin 3(a)//CRE-luc cells
Assay type: cell-based
Details: BHK cells with Amylin 3(a) receptor and CRE luciferase reporter, 4 hours incubation; read-out: Potency Luciferase
Procedure, shortened: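 BHK570 cells stably expressing CTa, RAMP-3 and a CRE-luciferase reporter, seeded at about 20,000 cells/well and grown overnight. Cells were exposed to standard or sample for 4 h at 37° C in phenol red-free DMEM with 10% FBS and 10 mM Hepes, pH 7,4. Luminescence was read after 30 min LucLite at room temperature.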

T1 sequence (O60896 24-148): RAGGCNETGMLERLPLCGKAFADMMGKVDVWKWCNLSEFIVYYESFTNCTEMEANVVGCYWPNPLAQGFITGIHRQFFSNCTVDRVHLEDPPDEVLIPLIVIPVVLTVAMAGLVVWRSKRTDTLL
T1 sequence (P30988 25-474): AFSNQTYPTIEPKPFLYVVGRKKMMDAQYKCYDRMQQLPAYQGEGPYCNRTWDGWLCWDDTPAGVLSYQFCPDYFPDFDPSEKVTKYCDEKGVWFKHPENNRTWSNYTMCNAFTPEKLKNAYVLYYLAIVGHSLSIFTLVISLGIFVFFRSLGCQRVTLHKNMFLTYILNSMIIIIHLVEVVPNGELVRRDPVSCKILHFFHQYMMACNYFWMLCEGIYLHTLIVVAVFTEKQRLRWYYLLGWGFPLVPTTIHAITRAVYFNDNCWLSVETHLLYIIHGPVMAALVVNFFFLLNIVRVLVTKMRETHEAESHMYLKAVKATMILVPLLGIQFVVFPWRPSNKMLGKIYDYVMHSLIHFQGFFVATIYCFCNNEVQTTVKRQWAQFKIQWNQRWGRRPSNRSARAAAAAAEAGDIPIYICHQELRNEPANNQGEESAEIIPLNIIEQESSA

EC50 [nM]	Structure (SMILES)
0.1	CC(C)C[C@H](NC(=O)[C@H](CCCNC(=N)N)NC(=O)[C@H](CCC(N)=O)NC(=O)[C@@H](NC(=O)[C@H](C)NC(=O)[C@@H]1CSSC[C@H](NC(=O)[C@H](CCC(=O)O)NC(=O)[C@H](CCCNC(=N)N)NC(=O)[C@H](CCC(=O)O)NC(=O)CC[C@H](NC(=O)CCCCCCCCCCCCCCCCCCC(=O)O)C(=O)O)C(=O)N[C@@H](CC(N)=O)C(=O)N[C@@H]([C@@H](C)O)C(=O)N[C@@H](C)C(=O)N[C@@H]([C@@H](C)O)C(=O)N1)[C@@H](C)O)C(=O)N[C@@H](C)C(=O)N[C@@H](CC(N)=O)C(=O)N[C@@H](Cc1ccccc1)C(=O)N[C@@H](CC(C)C)C(=O)N[C@@H](Cc1c[nH]cn1)C(=O)N[C@@H](Cc1c[nH]cn1)C(=O)N[C@@H](CO)C(=O)N[C@@H](CO)C(=O)N[C@@H](CCC(N)=O)C(=O)N[C@@H](CC(N)=O)C(=O)N[C@@H](Cc1ccccc1)C(=O)NCC(=O)N[C@@H](C)C(=O)N1CCC[C@H]1C(=O)N[C@@H](CC(C)C)C(=O)N[C@@H](CO)C(=O)N[C@@H](CO)C(=O)N[C@H](C(=O)N[C@@H](CC(N)=O)C(=O)N[C@H](C(=O)NCC(=O)N[C@@H](CO)C(=O)N[C@@H](CC(N)=O)C(=O)N[C@H](C(=O)N[C@@H](Cc1ccc(O)cc1)C(N)=O)[C@@H](C)O)C(C)C)[C@@H](C)O [Example 41, N-alpha-[(S)-4-Carboxy-4-(19-carboxynonadecanoylamino)butyryl]-Glu-Arg-[Glu1,His17,Gln21,Ala25,Pro26,Ser28,Ser29]-pramlintide] ({C20 diacid-γGlu}-ERECNTATCATQRLANFLHHSSQNFGAPLSSTNVGSNTY-NH2; disulfide 4-9)
0.07	CC[C@H](C)[C@H](NC(=O)[C@@H]1CCCN1C(=O)CNC(=O)[C@H](Cc1ccccc1)NC(=O)[C@H](CC(N)=O)NC(=O)[C@H](CC(N)=O)NC(=O)[C@H](CO)NC(=O)[C@H](CO)NC(=O)[C@H](Cc1c[nH]cn1)NC(=O)[C@H](Cc1c[nH]cn1)NC(=O)[C@H](CC(C)C)NC(=O)[C@H](Cc1ccccc1)NC(=O)[C@H](CC(N)=O)NC(=O)[C@H](C)NC(=O)[C@H](CC(C)C)NC(=O)[C@H](CCCNC(=N)N)NC(=O)[C@H](CCC(N)=O)NC(=O)[C@@H](NC(=O)[C@H](C)NC(=O)[C@@H]1CSSC[C@H](NC(=O)[C@H](CCCNC(=N)N)NC(=O)[C@H](CCCCN)NC(=O)[C@H](CCC(=O)O)NC(=O)CCCCCCCCCCCCCCCCCCC(=O)O)C(=O)N[C@@H](CC(N)=O)C(=O)N[C@@H]([C@@H](C)O)C(=O)N[C@@H](C)C(=O)N[C@@H]([C@@H](C)O)C(=O)N1)[C@@H](C)O)C(=O)N[C@@H](CC(C)C)C(=O)N1CCC[C@H]1C(=O)N1CCC[C@H]1C(=O)N[C@H](C(=O)N[C@@H](CC(N)=O)C(=O)N[C@H](C(=O)NCC(=O)N[C@@H](CO)C(=O)N[C@@H](CC(N)=O)C(=O)N[C@H](C(=O)N[C@@H](Cc1ccc(O)cc1)C(N)=O)[C@@H](C)O)C(C)C)[C@@H](C)O [Example 8, N-alpha-[19-carboxynonadecanoyl]-Glu-Lys-[Arg1,His17]-pramlintide] ({C20 diacid}-EKRCNTATCATQRLANFLHHSSNNFGPILPPTNVGSNTY-NH2; disulfide 4-9)
0.05	CC[C@H](C)[C@H](NC(=O)[C@@H]1CCCN1C(=O)CNC(=O)[C@H](Cc1ccccc1)NC(=O)[C@H](CC(N)=O)NC(=O)[C@H](CC(N)=O)NC(=O)[C@H](CO)NC(=O)[C@H](CO)NC(=O)[C@H](Cc1c[nH]cn1)NC(=O)[C@H](Cc1c[nH]cn1)NC(=O)[C@H](CC(C)C)NC(=O)[C@H](Cc1ccccc1)NC(=O)[C@H](CC(N)=O)NC(=O)[C@H](C)NC(=O)[C@H](CC(C)C)NC(=O)[C@H](CCCNC(=N)N)NC(=O)[C@H](CCC(N)=O)NC(=O)[C@@H](NC(=O)[C@H](C)NC(=O)[C@@H]1CSSC[C@H](NC(=O)[C@H](Cc2c[nH]cn2)NC(=O)[C@H](Cc2c[nH]cn2)NC(=O)[C@H](Cc2c[nH]cn2)NC(=O)CC[C@H](NC(=O)CCCCCCCCCCCCCCCCC(=O)O)C(=O)O)C(=O)N[C@@H](CC(N)=O)C(=O)N[C@@H]([C@@H](C)O)C(=O)N[C@@H](C)C(=O)N[C@@H]([C@@H](C)O)C(=O)N1)[C@@H](C)O)C(=O)N[C@@H](CC(C)C)C(=O)N1CCC[C@H]1C(=O)N1CCC[C@H]1C(=O)N[C@H](C(=O)N[C@@H](CC(N)=O)C(=O)N[C@H](C(=O)NCC(=O)N[C@@H](CO)C(=O)N[C@@H](CC(N)=O)C(=O)N[C@H](C(=O)N[C@@H](Cc1ccc(O)cc1)C(N)=O)[C@@H](C)O)C(C)C)[C@@H](C)O [Example 60, N-alpha-[(S)-4-Carboxy-4-(17-carboxyheptadecanoylamino)butyryl]-His-His-[His1,His17]-pramlintide] ({C18 diacid-γGlu}-HHHCNTATCATQRLANFLHHSSNNFGPILPPTNVGSNTY-NH2; disulfide 4-9)
0.1	CC[C@H](C)[C@H](NC(=O)[C@@H]1CCCN1C(=O)CNC(=O)[C@H](Cc1ccccc1)NC(=O)[C@H](CC(N)=O)NC(=O)[C@H](CC(N)=O)NC(=O)[C@H](CO)NC(=O)[C@H](CO)NC(=O)[C@H](Cc1c[nH]cn1)NC(=O)[C@H](Cc1c[nH]cn1)NC(=O)[C@H](CC(C)C)NC(=O)[C@H](Cc1ccccc1)NC(=O)[C@H](CC(N)=O)NC(=O)[C@H](C)NC(=O)[C@H](CC(C)C)NC(=O)[C@H](CCCNC(=N)N)NC(=O)[C@H](CCC(N)=O)NC(=O)[C@@H](NC(=O)[C@H](C)NC(=O)[C@@H]1CSSC[C@H](NC(=O)[C@H](CCCCN)NC(=O)[C@H](Cc2c[nH]cn2)NC(=O)CC[C@H](NC(=O)CCCCCCCCCCCCCCCCCCC(=O)O)C(=O)O)C(=O)N[C@@H](CC(N)=O)C(=O)N[C@@H]([C@@H](C)O)C(=O)N[C@@H](C)C(=O)N[C@@H]([C@@H](C)O)C(=O)N1)[C@@H](C)O)C(=O)N[C@@H](CC(C)C)C(=O)N1CCC[C@H]1C(=O)N1CCC[C@H]1C(=O)N[C@H](C(=O)N[C@@H](CC(N)=O)C(=O)N[C@H](C(=O)NCC(=O)N[C@@H](CO)C(=O)N[C@@H](CC(N)=O)C(=O)N[C@H](C(=O)N[C@@H](Cc1ccc(O)cc1)C(N)=O)[C@@H](C)O)C(C)C)[C@@H](C)O [Example 28, N-alpha-[(S)-4-Carboxy-4-(19-carboxynonadecanoylamino)butyryl]-His-[His17]-pramlintide] ({C20 diacid-γGlu}-HKCNTATCATQRLANFLHHSSNNFGPILPPTNVGSNTY-NH2; disulfide 3-8)
